For assay [1], the system named is P. aeruginosa PAO1 (G−). The assay is described as follows: MBC of Ag NPs, Cu compounds and combinations, 24 h incubation, plated on agarized broth. The assay is classed as cell-based, Pseudomonas aeruginosa.
In assay [2] the test system is E. faecalis ATCC 29212 (G+). The assay is described as above. It is filed as cell-based, Enterococcus faecalis.
Assay [3] has as its system Gram-negative and Gram-positive bacteria commonly colonizing wounds. In words: Antibacterial synergy K(Syn) of Ag and Cu compounds across bacterial strains (FIG. 3, FIG. 5). The assay is classed as cell-based. The protocol: FIGS. 3A and 3B show the synergistic effect of CuO NPs and CuSO4 with Ag NPs (A) or AgNO3 (B) to a range of Gram-negative and Gram-positive bacteria commonly colonizing wounds. Bacterial suspension was incubated with Ag NPs, CuO NPs, respective ions or their combinations for 24 h, plated on agarized broth, and MBC was determined.
In order to quantify and compare the synergistic effect between different Ag and Cu compounds and among various bacterial strains, we introduced the term “Coefficient of antimicrobial synergy”, K(Syn), showing the antimicrobial efficiency of Ag compound and Cu compound combinations (mix) compared to the sum of the MBC values of individual compounds and calculated as follows: […]
In order to quantify and compare the synergistic effect between different Ag NPs and Copper compounds among various bacterial strains, we introduced the term “Coefficient of antibacterial synergy”, K(Syn), showing the antimicrobial efficiency of Ag- and copper compound combinations (mix) compared to the sum of the MBC values of individual Ag- and Cu compounds and calculated as follows: […]
Bacterial suspensions were incubated with Ag NPs, CuO NPs, respective ions or their combinations for 24 h, plated on agarized broth, and MBC was determined. […]

For assay [4], the system named is S. aureus ATCC 25923 (G+). In words: MBC of Ag NPs, Cu compounds and combinations, 24 h incubation, plated on agarized broth. It is filed as cell-based, Staphylococcus aureus.
Assay [5] relates to E. coli ESBL (G−). Described as above. The assay is classed as cell-based, Escherichia coli.
The test system of assay [6] is S. dysgalacticae DSM 23147 (G+). The description is as above. The assay is classed as cell-based.
The subject of assay [7] is E. coli K-12 (G−). Described as above. It is filed as cell-based, Escherichia coli.

Molecules are shown by their SMILES.

For `O=S(=O)([O-])[O-].[Cu+2]` [CuSO4], the “K (Syn)” value was determined as 2.783 ± 0.687 in assay [1] (P. aeruginosa PAO1, Cu compound + Ag NPs); 4.254 ± 0.977 in assay [2] (E. faecalis ATCC 29212, Cu compound + Ag NPs); 3.659 ± 1.083 in assay [4] (S. aureus ATCC 25923, Cu compound + Ag NPs); 4.727 ± 0.63 in assay [5] (Cu compound + Ag NPs); 3.909 ± 0.832 in assay [6] (S. dysgalacticae DSM 23147, Cu compound + Ag NPs); 5.055 ± 0.383 in assay [7] (E. coli K-12, Cu compound + Ag NPs). In addition, the “MBC (CuX) in combination” value was found to be 20 ± 6.85 µg/mL in assay [1] (P. aeruginosa PAO1, Cu compound in combination with Ag NPs); 20.83 ± 7.22 µg/mL in assay [2] (E. faecalis ATCC 29212, Cu compound in combination with Ag NPs); 16.25 ± 8.39 µg/mL in assay [4] (S. aureus ATCC 25923, Cu compound in combination with Ag NPs); 25 ± 0 µg/mL in assay [5] (Cu compound in combination with Ag NPs); 12.5 ± 0 µg/mL in assay [6] (S. dysgalacticae DSM 23147, Cu compound in combination with Ag NPs); 22.5 ± 16.3 µg/mL in assay [7] (E. coli K-12, Cu compound in combination with Ag NPs). The MBC alone in assay [1] (P. aeruginosa PAO1, compound alone) came to 720 ± 178.9 µg/mL; in assay [2] (E. faecalis ATCC 29212, compound alone) it was 200 ± 0 µg/mL; in assay [4] (S. aureus ATCC 25923, compound alone), 90 ± 22.36 µg/mL; in assay [5] (compound alone), 200 ± 0 µg/mL; in assay [6] (S. dysgalacticae DSM 23147, compound alone), 133.3 ± 57.7 µg/mL; in assay [7] (E. coli K-12, compound alone), 217.6 ± 72.8 µg/mL. Besides, the “synergy with Ag NPs, K(Syn), ranking among Cu compounds” value in assay [3] (all tested bacterial strains (FIG. 3A)) is reported as “highest”.
On to `O=[N+]([O-])[O-].[Ag+]` [AgNO3, reference compound], for which, in assay [3] (ionic silver used instead of Ag NPs (FIG. 3B)), the “synergistic effect with Cu compounds compared with Ag NPs” value is listed as “considerably lower”.

The values are drawn from patent US20240041047A1, “ENHANCED ANTIMICROBIAL EFFICACY (SYNERGY) OF SILVER AND COPPER COMPOUNDS AND MEDICAL USE OF THEIR COMBINATIONS” (Nanordica Medical OÜ, priority 2021, published 2024).
